Measured values from PubChem BioAssay (NCI).
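Tested at 5 concentrations; 48 h exposure; 96-well plates; endpoints linearly interpolated, else capped at highest concentration. GI50 marks 50% less growth. TGI: total growth inhibition.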

Experiments:
Test in all cases: NCI tumour cell line growth inhibition, 48 h
786-0 renal = test system: 786-0 renal
A498 renal = test system: A498 renal
A549 NSCLC = test system: A549 NSCLC
ACHN renal = test system: ACHN renal
BT-549 breast = test system: BT-549 breast
CAKI-1 renal = test system: CAKI-1 renal
CCRF-CEM leukemia = test system: CCRF-CEM leukemia
COLO 205 colon = test system: COLO 205 colon
DU-145 prostate = test system: DU-145 prostate
EKVX NSCLC = test system: EKVX NSCLC
HCC-2998 colon = test system: HCC-2998 colon
HCT-116 colon = test system: HCT-116 colon
HCT-15 colon = test system: HCT-15 colon
HL-60(TB) leukemia = test system: HL-60(TB) leukemia
HOP-62 NSCLC = test system: HOP-62 NSCLC
HOP-92 NSCLC = test system: HOP-92 NSCLC
HS 578T breast = test system: HS 578T breast
HT29 colon = test system: HT29 colon
IGROV1 ovarian = test system: IGROV1 ovarian
K-562 leukemia = test system: K-562 leukemia
KM12 colon = test system: KM12 colon
LOX IMVI melanoma = test system: LOX IMVI melanoma
M14 melanoma = test system: M14 melanoma
MALME-3M melanoma = test system: MALME-3M melanoma
MCF7 breast = test system: MCF7 breast
MDA-MB-231 breast = test system: MDA-MB-231 breast
MDA-MB-435 = test system: MDA-MB-435
MOLT-4 leukemia = test system: MOLT-4 leukemia
NCI-H226 lung = test system: NCI-H226 lung
NCI-H23 lung = test system: NCI-H23 lung
NCI-H460 lung = test system: NCI-H460 lung
NCI-H522 lung = test system: NCI-H522 lung
NCI/ADR-RES ovarian = test system: NCI/ADR-RES ovarian
OVCAR-3 ovarian = test system: OVCAR-3 ovarian
OVCAR-4 ovarian = test system: OVCAR-4 ovarian
OVCAR-5 ovarian = test system: OVCAR-5 ovarian
OVCAR-8 ovarian = test system: OVCAR-8 ovarian
PC-3 prostate = test system: PC-3 prostate
RPMI-8226 leukemia = test system: RPMI-8226 leukemia
RXF 393 renal = test system: RXF 393 renal
SF-268 CNS = test system: SF-268 CNS
SF-295 CNS = test system: SF-295 CNS
SF-539 CNS = test system: SF-539 CNS
SK-MEL-2 melanoma = test system: SK-MEL-2 melanoma
SK-MEL-28 melanoma = test system: SK-MEL-28 melanoma
SK-MEL-5 melanoma = test system: SK-MEL-5 melanoma
SK-OV-3 ovarian = test system: SK-OV-3 ovarian
SN12C renal = test system: SN12C renal
SNB-19 CNS = test system: SNB-19 CNS
SNB-75 CNS = test system: SNB-75 CNS
SR leukemia = test system: SR leukemia
SW-620 colon = test system: SW-620 colon
T-47D breast = test system: T-47D breast
TK-10 renal = test system: TK-10 renal
U251 CNS = test system: U251 CNS
UACC-257 melanoma = test system: UACC-257 melanoma
UACC-62 melanoma = test system: UACC-62 melanoma
UO-31 renal = test system: UO-31 renal

Question: Which GI50 (786-0 renal) does the source give for `COc1cc2c3c(n(CCCN)c(=O)c2cc1OC)-c1ccc(N(C)C)cc1C3=O` here?
Answer: 5.29 µM

Question: And the TGI (786-0 renal)?
Answer: 11.8 µM

Question: What about the GI50 (A498 renal) of the same compound?
Answer: 21 µM

Question: And the TGI (A498 renal)?
Answer: 37.2 µM

Question: And the GI50 (A549 NSCLC)?
Answer: 18 µM

Question: What about the TGI (A549 NSCLC) of the same compound?
Answer: 52 µM

Question: And the GI50 (ACHN renal)?
Answer: 17.4 µM

Question: What about the TGI (ACHN renal) of the same compound?
Answer: 31.5 µM

Question: And the GI50 (BT-549 breast)?
Answer: 14.5 µM

Question: What about the TGI (BT-549 breast) of the same compound?
Answer: 28.8 µM

Question: And the GI50 (CAKI-1 renal)?
Answer: 22.7 µM

Question: What about the TGI (CAKI-1 renal) of the same compound?
Answer: 47.5 µM

Question: And the GI50 (CCRF-CEM leukemia)?
Answer: 1.98 µM

Question: What about the TGI (CCRF-CEM leukemia) of the same compound?
Answer: 5.16 µM

Question: And the GI50 (COLO 205 colon)?
Answer: 17.4 µM

Question: What about the TGI (COLO 205 colon) of the same compound?
Answer: 35.5 µM

Question: And the GI50 (DU-145 prostate)?
Answer: 2.38 µM

Question: What about the TGI (DU-145 prostate) of the same compound?
Answer: 6.6 µM

Question: What about the GI50 (EKVX NSCLC) of the same compound?
Answer: 16.7 µM

Question: What about the TGI (EKVX NSCLC) of the same compound?
Answer: 32 µM

Question: And the GI50 (HCC-2998 colon)?
Answer: 3.29 µM

Question: What about the TGI (HCC-2998 colon) of the same compound?
Answer: 7.68 µM

Question: What about the GI50 (HCT-116 colon) of the same compound?
Answer: 2.42 µM

Question: And the TGI (HCT-116 colon)?
Answer: 6.07 µM

Question: What about the GI50 (HCT-15 colon) of the same compound?
Answer: 13.9 µM

Question: And the TGI (HCT-15 colon)?
Answer: 27.1 µM

Question: And the GI50 (HL-60(TB) leukemia)?
Answer: 21.6 µM

Question: And the TGI (HL-60(TB) leukemia)?
Answer: 47.7 µM

Question: And the GI50 (HOP-62 NSCLC)?
Answer: 16.8 µM

Question: What about the TGI (HOP-62 NSCLC) of the same compound?
Answer: 31.9 µM

Question: And the GI50 (HOP-92 NSCLC)?
Answer: 6.8 µM

Question: What about the TGI (HOP-92 NSCLC) of the same compound?
Answer: 22.8 µM

Question: And the GI50 (HS 578T breast)?
Answer: 27.9 µM

Question: And the TGI (HS 578T breast)?
Answer: 61.5 µM

Question: And the GI50 (HT29 colon)?
Answer: 1.54 µM

Question: What about the TGI (HT29 colon) of the same compound?
Answer: 2.94 µM

Question: What about the GI50 (IGROV1 ovarian) of the same compound?
Answer: 14.8 µM

Question: And the TGI (IGROV1 ovarian)?
Answer: 47 µM

Question: And the GI50 (K-562 leukemia)?
Answer: 4.09 µM

Question: And the TGI (K-562 leukemia)?
Answer: 17.4 µM

Question: And the GI50 (KM12 colon)?
Answer: 2.34 µM

Question: And the TGI (KM12 colon)?
Answer: 4.85 µM

Question: And the GI50 (LOX IMVI melanoma)?
Answer: 2.05 µM

Question: What about the TGI (LOX IMVI melanoma) of the same compound?
Answer: 4.45 µM

Question: What about the GI50 (M14 melanoma) of the same compound?
Answer: 16.4 µM

Question: What about the TGI (M14 melanoma) of the same compound?
Answer: 32.6 µM

Question: What about the GI50 (MALME-3M melanoma) of the same compound?
Answer: 9.33 µM

Question: And the TGI (MALME-3M melanoma)?
Answer: 29.9 µM

Question: What about the GI50 (MCF7 breast) of the same compound?
Answer: 14.8 µM

Question: And the TGI (MCF7 breast)?
Answer: 36.7 µM

Question: And the GI50 (MDA-MB-231 breast)?
Answer: 11.9 µM

Question: What about the TGI (MDA-MB-231 breast) of the same compound?
Answer: 25.5 µM

Question: And the GI50 (MDA-MB-435)?
Answer: 22.6 µM

Question: And the TGI (MDA-MB-435)?
Answer: 46.3 µM

Question: And the GI50 (MOLT-4 leukemia)?
Answer: 7.01 µM

Question: What about the TGI (MOLT-4 leukemia) of the same compound?
Answer: 19.5 µM

Question: And the GI50 (NCI-H226 lung)?
Answer: 23.9 µM

Question: What about the TGI (NCI-H226 lung) of the same compound?
Answer: 49.5 µM

Question: What about the GI50 (NCI-H23 lung) of the same compound?
Answer: 16.6 µM

Question: And the TGI (NCI-H23 lung)?
Answer: 30.5 µM

Question: What about the GI50 (NCI-H460 lung) of the same compound?
Answer: 4.45 µM

Question: What about the TGI (NCI-H460 lung) of the same compound?
Answer: 26.1 µM

Question: And the GI50 (NCI-H522 lung)?
Answer: 17.3 µM

Question: What about the TGI (NCI-H522 lung) of the same compound?
Answer: 38.1 µM

Question: What about the GI50 (NCI/ADR-RES ovarian) of the same compound?
Answer: 13.9 µM

Question: And the TGI (NCI/ADR-RES ovarian)?
Answer: 43.2 µM

Question: And the GI50 (OVCAR-3 ovarian)?
Answer: 20.4 µM

Question: What about the TGI (OVCAR-3 ovarian) of the same compound?
Answer: 42.2 µM

Question: And the GI50 (OVCAR-4 ovarian)?
Answer: 17.5 µM

Question: And the TGI (OVCAR-4 ovarian)?
Answer: 33.8 µM

Question: What about the GI50 (OVCAR-5 ovarian) of the same compound?
Answer: 17 µM

Question: And the TGI (OVCAR-5 ovarian)?
Answer: 31.4 µM

Question: And the GI50 (OVCAR-8 ovarian)?
Answer: 7.22 µM

Question: What about the TGI (OVCAR-8 ovarian) of the same compound?
Answer: 33.7 µM

Question: And the GI50 (PC-3 prostate)?
Answer: 1.69 µM

Question: What about the TGI (PC-3 prostate) of the same compound?
Answer: 3.14 µM

Question: What about the GI50 (RPMI-8226 leukemia) of the same compound?
Answer: 2 µM

Question: And the TGI (RPMI-8226 leukemia)?
Answer: 4.68 µM

Question: What about the GI50 (RXF 393 renal) of the same compound?
Answer: 6.53 µM

Question: What about the TGI (RXF 393 renal) of the same compound?
Answer: 14.8 µM

Question: And the GI50 (SF-268 CNS)?
Answer: 16.1 µM

Question: What about the TGI (SF-268 CNS) of the same compound?
Answer: 46.1 µM

Question: What about the GI50 (SF-295 CNS) of the same compound?
Answer: 17.6 µM

Question: What about the TGI (SF-295 CNS) of the same compound?
Answer: 37.9 µM

Question: What about the GI50 (SF-539 CNS) of the same compound?
Answer: 1.92 µM

Question: And the TGI (SF-539 CNS)?
Answer: 3.66 µM

Question: And the GI50 (SK-MEL-2 melanoma)?
Answer: 19.6 µM

Question: What about the TGI (SK-MEL-2 melanoma) of the same compound?
Answer: 38.1 µM

Question: And the GI50 (SK-MEL-28 melanoma)?
Answer: 12.3 µM

Question: And the TGI (SK-MEL-28 melanoma)?
Answer: 27.6 µM

Question: What about the GI50 (SK-MEL-5 melanoma) of the same compound?
Answer: 6.4 µM

Question: What about the TGI (SK-MEL-5 melanoma) of the same compound?
Answer: 13.7 µM

Question: And the GI50 (SK-OV-3 ovarian)?
Answer: 21 µM

Question: And the TGI (SK-OV-3 ovarian)?
Answer: 42.7 µM

Question: What about the GI50 (SN12C renal) of the same compound?
Answer: 16.9 µM

Question: What about the TGI (SN12C renal) of the same compound?
Answer: 32 µM

Question: And the GI50 (SNB-19 CNS)?
Answer: 16.9 µM

Question: And the TGI (SNB-19 CNS)?
Answer: 33.7 µM

Question: What about the GI50 (SNB-75 CNS) of the same compound?
Answer: 22.5 µM

Question: What about the TGI (SNB-75 CNS) of the same compound?
Answer: 46 µM

Question: And the GI50 (SR leukemia)?
Answer: 18.7 µM

Question: And the TGI (SR leukemia)?
Answer: 74.5 µM

Question: And the GI50 (SW-620 colon)?
Answer: 1.95 µM

Question: And the TGI (SW-620 colon)?
Answer: 3.76 µM

Question: And the GI50 (T-47D breast)?
Answer: 20 µM

Question: And the TGI (T-47D breast)?
Answer: 41 µM

Question: And the GI50 (TK-10 renal)?
Answer: 18.5 µM

Question: What about the TGI (TK-10 renal) of the same compound?
Answer: 37.2 µM

Question: And the GI50 (U251 CNS)?
Answer: 16.5 µM

Question: What about the TGI (U251 CNS) of the same compound?
Answer: 31.1 µM

Question: And the GI50 (UACC-257 melanoma)?
Answer: 23.5 µM

Question: What about the TGI (UACC-257 melanoma) of the same compound?
Answer: 48.3 µM

Question: And the GI50 (UACC-62 melanoma)?
Answer: 21.6 µM

Question: What about the TGI (UACC-62 melanoma) of the same compound?
Answer: 42.2 µM

Question: What about the GI50 (UO-31 renal) of the same compound?
Answer: 16.9 µM

Question: What about the TGI (UO-31 renal) of the same compound?
Answer: 36.1 µM
